In ChEMBL document CHEMBL5370549, “Optimization and evaluation of pyridinyl vinyl sulfones as Nrf2 activator for the antioxidant and anti-inflammatory effects” (Eur J Med Chem, 2023):
Where a name gives a salt, the structure may show the parent alone.

Assays:
[1] = target: T1, Nuclear factor erythroid 2-related factor 2 (Homo sapiens, UniProt Q16236); test: Activation of Nrf2 in human U2OS cells co-expressing Keap1 assessed as induction of Nrf2 nuclear translocation incubated for 6 hrs by PathHunter chemiluminescence based analysis; format: cell-based
T1 sequence (Q16236 whole entry): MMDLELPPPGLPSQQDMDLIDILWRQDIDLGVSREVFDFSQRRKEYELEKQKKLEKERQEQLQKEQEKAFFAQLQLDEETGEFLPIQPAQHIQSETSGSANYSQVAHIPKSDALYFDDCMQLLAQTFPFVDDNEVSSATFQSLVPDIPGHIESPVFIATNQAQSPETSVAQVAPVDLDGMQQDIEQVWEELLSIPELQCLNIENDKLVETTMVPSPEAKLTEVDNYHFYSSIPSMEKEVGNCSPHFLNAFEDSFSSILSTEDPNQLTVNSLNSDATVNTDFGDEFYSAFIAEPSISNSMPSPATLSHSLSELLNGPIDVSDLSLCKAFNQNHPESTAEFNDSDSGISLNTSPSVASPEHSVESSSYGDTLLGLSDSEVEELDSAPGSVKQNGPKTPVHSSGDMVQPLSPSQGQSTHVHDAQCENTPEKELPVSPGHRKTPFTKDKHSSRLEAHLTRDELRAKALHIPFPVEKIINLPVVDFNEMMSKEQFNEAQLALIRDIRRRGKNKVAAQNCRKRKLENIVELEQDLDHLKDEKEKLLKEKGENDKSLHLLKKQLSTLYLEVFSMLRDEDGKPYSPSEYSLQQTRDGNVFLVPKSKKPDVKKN

CYP1A2 = target: T2, CYP1A2 (Homo sapiens, UniProt P05177); test: Inhibition of CYP1A2 (unknown origin) assessed as enzyme activity at 10 uM relative to control; format: ADME; design: scale not given: the % may be the effect or the level left; settings: read-out: Activity
T2 sequence (P05177 whole entry): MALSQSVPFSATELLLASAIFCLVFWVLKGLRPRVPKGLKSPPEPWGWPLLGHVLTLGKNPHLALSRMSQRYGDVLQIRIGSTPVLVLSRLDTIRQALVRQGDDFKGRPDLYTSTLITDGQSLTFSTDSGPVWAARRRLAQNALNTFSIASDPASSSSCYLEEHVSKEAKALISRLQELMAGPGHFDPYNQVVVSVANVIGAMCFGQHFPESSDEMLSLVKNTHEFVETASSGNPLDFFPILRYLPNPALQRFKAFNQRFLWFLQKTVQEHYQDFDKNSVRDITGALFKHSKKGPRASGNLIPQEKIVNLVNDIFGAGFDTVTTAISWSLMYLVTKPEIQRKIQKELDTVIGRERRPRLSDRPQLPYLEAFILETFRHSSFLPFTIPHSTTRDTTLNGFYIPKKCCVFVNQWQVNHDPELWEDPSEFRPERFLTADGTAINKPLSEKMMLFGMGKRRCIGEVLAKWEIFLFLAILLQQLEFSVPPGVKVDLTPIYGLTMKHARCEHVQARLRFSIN

CYP3A4 = CYP3A4 (Homo sapiens, UniProt P08684); test: Inhibition of CYP3A4 (unknown origin) assessed as enzyme activity at 10 uM relative to control; format: ADME; design: scale not given: the % may be the effect or the level left; settings: read-out: Activity
Sequence of CYP3A4 (P08684 whole entry): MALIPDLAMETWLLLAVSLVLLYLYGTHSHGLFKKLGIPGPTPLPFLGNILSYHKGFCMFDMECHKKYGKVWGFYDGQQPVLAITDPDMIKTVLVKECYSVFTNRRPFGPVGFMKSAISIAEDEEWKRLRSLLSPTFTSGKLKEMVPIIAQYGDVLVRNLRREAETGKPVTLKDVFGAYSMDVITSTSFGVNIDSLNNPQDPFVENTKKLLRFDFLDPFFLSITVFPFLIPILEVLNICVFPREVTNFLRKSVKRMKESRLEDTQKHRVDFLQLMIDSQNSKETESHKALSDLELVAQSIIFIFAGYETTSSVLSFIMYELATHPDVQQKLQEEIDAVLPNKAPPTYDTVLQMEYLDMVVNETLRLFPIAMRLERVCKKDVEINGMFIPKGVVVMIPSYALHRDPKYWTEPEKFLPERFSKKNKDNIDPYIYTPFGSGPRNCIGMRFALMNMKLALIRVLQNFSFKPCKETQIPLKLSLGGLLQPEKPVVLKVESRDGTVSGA

CYP2C9 = CYP2C9 (Homo sapiens, UniProt P11712); test: Inhibition of CYP2C9 (unknown origin) assessed as enzyme activity at 10 uM relative to control; format: ADME; design: scale not given: the % may be the effect or the level left; settings: read-out: Activity
Sequence of CYP2C9 (P11712 whole entry): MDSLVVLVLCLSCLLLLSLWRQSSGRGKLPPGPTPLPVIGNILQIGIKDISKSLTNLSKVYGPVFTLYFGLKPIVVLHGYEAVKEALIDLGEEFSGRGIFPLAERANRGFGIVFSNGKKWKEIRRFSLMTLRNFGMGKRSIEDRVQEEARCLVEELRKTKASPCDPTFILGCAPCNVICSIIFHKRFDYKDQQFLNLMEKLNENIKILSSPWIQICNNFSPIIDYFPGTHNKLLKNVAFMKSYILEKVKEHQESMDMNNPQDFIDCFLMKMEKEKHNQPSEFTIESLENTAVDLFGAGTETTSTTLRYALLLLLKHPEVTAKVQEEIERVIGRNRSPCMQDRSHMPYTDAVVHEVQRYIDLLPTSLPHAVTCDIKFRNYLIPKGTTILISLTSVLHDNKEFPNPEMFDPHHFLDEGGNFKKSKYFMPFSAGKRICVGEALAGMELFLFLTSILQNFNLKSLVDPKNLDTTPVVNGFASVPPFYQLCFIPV

CYP2C19 = CYP2C19 (Homo sapiens, UniProt P33261); test: Inhibition of CYP2C19 (unknown origin) assessed as enzyme activity at 10 uM relative to control; format: ADME; design: scale not given: the % may be the effect or the level left; settings: read-out: Activity
Sequence of CYP2C19 (P33261 whole entry): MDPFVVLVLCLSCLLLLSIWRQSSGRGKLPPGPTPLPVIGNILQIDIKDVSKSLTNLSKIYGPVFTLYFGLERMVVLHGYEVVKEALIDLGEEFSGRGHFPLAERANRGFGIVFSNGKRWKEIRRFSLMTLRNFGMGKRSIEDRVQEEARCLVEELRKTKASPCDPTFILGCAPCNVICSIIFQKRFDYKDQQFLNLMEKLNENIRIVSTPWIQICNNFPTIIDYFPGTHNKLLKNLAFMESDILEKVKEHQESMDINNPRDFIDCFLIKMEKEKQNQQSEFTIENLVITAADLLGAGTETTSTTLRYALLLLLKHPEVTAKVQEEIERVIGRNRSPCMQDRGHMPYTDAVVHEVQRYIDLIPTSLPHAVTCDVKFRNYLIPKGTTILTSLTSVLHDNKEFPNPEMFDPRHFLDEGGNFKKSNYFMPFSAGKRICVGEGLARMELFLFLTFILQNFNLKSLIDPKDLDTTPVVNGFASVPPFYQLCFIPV

CYP2D6 = CYP2D6 (Homo sapiens, UniProt P10635); test: Inhibition of CYP2D6 (unknown origin) assessed as enzyme activity at 10 uM relative to control; format: ADME; design: scale not given: the % may be the effect or the level left; settings: read-out: Activity
Sequence of CYP2D6 (P10635 whole entry): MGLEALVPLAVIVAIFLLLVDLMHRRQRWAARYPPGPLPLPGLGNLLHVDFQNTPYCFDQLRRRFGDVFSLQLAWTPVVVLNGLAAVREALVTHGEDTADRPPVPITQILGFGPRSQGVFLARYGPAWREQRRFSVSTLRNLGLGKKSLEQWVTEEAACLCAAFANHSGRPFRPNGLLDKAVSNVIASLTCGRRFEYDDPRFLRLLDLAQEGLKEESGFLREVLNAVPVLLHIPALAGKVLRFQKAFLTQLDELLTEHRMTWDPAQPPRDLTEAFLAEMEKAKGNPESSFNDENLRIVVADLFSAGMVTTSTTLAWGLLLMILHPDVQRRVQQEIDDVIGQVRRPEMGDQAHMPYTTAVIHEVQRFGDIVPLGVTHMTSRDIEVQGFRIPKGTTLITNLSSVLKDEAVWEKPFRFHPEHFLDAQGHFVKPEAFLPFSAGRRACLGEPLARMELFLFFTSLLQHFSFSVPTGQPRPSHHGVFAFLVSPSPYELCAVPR

[2] = Metabolic stability of the compound in human liver microsomes assessed as parent compound remaining measured after 30 mins; format: ADME, Microsome; settings: read-out: Stability
[3] = Metabolic stability of the compound in mouse liver microsomes assessed as parent compound remaining measured after 30 mins; format: ADME, Microsome; settings: read-out: Stability
[4] = Metabolic stability of the compound in human plasma assessed as parent compound remaining measured after 30 mins; format: ADME, cell-free; settings: read-out: Stability
[5] = Metabolic stability of the compound in rat plasma assessed as parent compound remaining measured after 30 mins; format: ADME, cell-free; settings: read-out: Stability

Row | SMILES | EC50 [1] | activity at 10 µM (CYP1A2) | activity at 10 µM (CYP3A4) | activity at 10 µM (CYP2C9) | activity at 10 µM (CYP2C19) | activity at 10 µM (CYP2D6) | remaining at 0.5 h [2] | remaining at 0.5 h [3] | remaining at 0.5 h [4] | remaining at 0.5 h [5]
1 | COc1ncccc1S(=O)(=O)/C=C/c1ncccc1Cl | 75 nM | 31% | 53% | > 99% | 15% | > 99% | 77.6% | 59.2% | 98.5% | 91.3%
2 | COC(=O)/C=C/C(=O)OC [DIMETHYL FUMARATE] | 5110 nM | – | – | – | – | – | – | – | – | –
3 | COc1ccnc(S(=O)(=O)/C=C/c2ccccc2Cl)c1 | 58 nM | 28.5% | 49.8% | 73.6% | 11.1% | 97.5% | 22.8% | 2.2% | > 99% | 96.5%
4 | COc1ccnc(S(=O)(=O)/C=C/c2ccc(Cl)cc2)c1 | 1220 nM | 49% | 85.8% | > 99% | 10.5% | 98.5% | 37.8% | 18.8% | > 99% | > 99%
5 | COc1cccc(S(=O)(=O)/C=C/c2ncccc2Cl)n1 | 93 nM | 23.1% | 36.8% | > 99% | 12.5% | 96% | 49.4% | 9.6% | > 99% | 83%
6 | COc1ncccc1S(=O)(=O)/C=C/c1ccccc1Cl | 189 nM | 10.7% | 48.5% | > 99% | 7.1% | 99.5% | 75.2% | 48.1% | > 99% | 98.9%
7 | COc1cccnc1C(=O)/C=C/c1ccccc1C(F)(F)F | – | 3.7% | 27.4% | > 99% | 8.2% | 91.3% | 1% | 1.4% | 96.5% | 94.3%
8 | COc1ccnc(S(=O)(=O)/C=C/c2cccnc2Cl)c1 | 49 nM | 81% | 91.5% | > 99% | 30.2% | 99.8% | 76.6% | 61.4% | 99% | 91.9%
9 | COc1ccncc1S(=O)(=O)/C=C/c1ncccc1Cl | 51 nM | 79.5% | 15.7% | > 99% | 42.9% | 88.7% | 91.4% | 77.1% | – | –
10 | COc1ccnc([S+]([O-])/C=C/c2ccccc2C(F)(F)F)c1 (centres undefined) | – | 34.3% | 45.1% | 81.9% | 6.4% | 85.7% | 40.6% | 1.4% | 96% | 92.2%
11 | COc1cccnc1[S+]([O-])/C=C/c1ccccc1C(F)(F)F (centres undefined) | – | 32.8% | 36.9% | 56.3% | 32.9% | 95.9% | 46.3% | 5% | > 99% | > 99%
12 | COc1cccnc1/C=C/S(=O)(=O)c1ncccc1OC | 1870 nM | 82.1% | > 99% | 66.5% | > 99% | 91.9% | > 99% | > 99% | – | –
